Columns and labels:
[1] = test system: eight serotypes of pneumococci; experiment: MIC test on pneumococcal strains; format: cell-based, Streptococcus pneumoniae
Experimental: The MICs of enzymes and antibiotics were determined in a 96-well titration plate in triplicate. Briefly, the overnight pneumococcal culture was diluted with 2×THY to obtain a final concentration of 1×10^7 CFU/ml, and other bacterial species were diluted with 2-folded medium to 1×10^5 CFU/ml. 100 μl of the diluted bacterial culture was subjected into each well, mixing with the serial 2-fold diluted 100 μl of enzymes/antibiotics. PBS buffer was used as a negative control. The plates were sealed via parafilm and statically incubated at 37° C. incubator for 24 h. The MIC was defined as the lowest concentration of treatment that inhibited visible growth of the bacterium.
To further evaluate the activity of ClyX-1, MIC tests were performed against eight serotypes of pneumococci including penicillin-resistant strains and capsule-free mutant with information shown in FIG. 13. Penicillin and levofloxacin were tested as standards to benchmark the antimicrobial activity. All of the strains were sensitive to levofloxacin (MIC<=2). Only the two penicillin-resistant strains indicated MIC larger than 2 μg/ml (resistance). […] The MICs of ClyX-1 were lower than that of Cpl-1 and even levofloxacin, ranging from 0.13 μg/ml to 0.5 μg/ml.

[2] = test system: S. pneumoniae ATCC TIGR 4; experiment: Bacteriolytic (turbidity reduction) assay; format: cell-based, Streptococcus pneumoniae; settings: 5 μg/ml; OD from 1.0 to 0.2 within the first 2 min; overnight culture
Experimental: In a bacteriolytic assay, bacterial culture (stationary phase) was harvested at 5,000 for 10 min at 4° C., washed twice and resuspended in PBS buffer, pH7.4. In a 96-well titration plate, the resuspended bacterial solution was mixed 1:1 (u/u) with endolysin to a final OD600 between 0.8 to 1.0. In each run, PBS was included as a negative control. Spectrophotometric readings (OD600) were taken every 15 s over 10 min on a spectrophotometer. Vmax was calculated as the slope of the linear portion and represented the endolysins activity. All experiments were conducted in triplicate to get the standard deviation.
Bacteriolytic capacity of ClyX-1 and ClyX-1 linkers were analyzed via the turbidity reduction assay against the overnight culture of S. pneumoniae ATCC TIGR 4. Both enzymes-induced lysis of the bacterial peptidoglycan caused a decrease in OD from 1.0 to 0.2 (80%) within the first 2 min of the turbidity assay at 5 μg/ml as shown in FIG. 9a. The linkers were the only difference between these two enzymes, and the unstructured region of PlyCA GyH, PlyCA CHAP, and Cpl-1 CBD provide optimal flexibility for enzymatical activity. High lytic activity correlated with data for bacterial survival after chimera treatment. ClyX-1 sterilized cultures for 5 min, causing a decrease in TIGR 4 viability of ˜6 log, at as low as 0.5 μg/ml (FIG. 9b). […]

## C[C@H]1COc2c(N3CCN(C)CC3)c(F)cc3c(=O)c(C(=O)O)cn1c23 [levofloxacin]
[1]; all strains, 24 h, unit not given
  MIC: <= 2

## Penicillin
[1]; the two penicillin-resistant strains
  MIC: > 2 µg/mL

B1: ClyX-1 linkers: similar to ClyX-1 but with two extra native linkers in the PlyCA; Seq. ID No. 18 (protein)
chain: MSKKYTQQQYEKYLAQPANNTFGLSPQQVADWFMGQAGARPVINSYGVNASNLVSTYIPKMQEYGVSYTLFLMYTVFEGGGAGNWINHYMYDTGSNGLECLEHDLQYIHGVWETYFPPALSAPECYPATEDNAGALDRFYQSLPGRTWGDVMIPSTMAGNAWVWAYNYCVNNQGAAPLVYFGNPYDSQIDSLLAMGADPFTGGSITGDGKNPSVGTGNATVSASSECTMEEDDKPKTAGTWKQDSKGWWFRRNNGSFPYNKWEKIGGVWYYFDSKGYCLTSEWLKDNEKWYYLKDNGAMATGWVLVGSEWYYMDDSGAMVTGWVKYKNNWYYMTNERGNMVSNEFIKSGKGWYFMNTNGELADNPSFTKEPDGLITVALQQTNPNPDKPTVKSPGQNDLGSGSDRVAANLANAQAQVGKYIGDGQCYAWVGWWSARVCGYSISYSTGDPMLPLIGDGMNAHSIHLGWDWSIANTGIVNYPVGTVGRKEDLRVGAIWCATAFSGAPFYTGQYGHTGIIESWSDTTVTVLEQNILGSPVIRSTYDLNTFLSTLTGLITFK
modifications: Bacteriophage
notes: similar to ClyX-1 but with two extra native linkers in the PlyCA; ID No. 18
[2]
  decrease in OD in turbidity assay: 80%

Reference: patent US10975365B2, “Di-enzymatic chimeric endolysin” (Government of the United States of America, as represented …, priority 2018, dated 2021)
